35 compounds from US20260216294A1, “BETA 2-ADRENERGIC RECEPTOR AGONISTS FOR TREATMENT OR PREVENTION OF MUSCLE WASTING” (ATROGI AB, priority 2023, published 2026) can be followed below.

In experiment [1] the test system is L6-myotubes. Put plainly: Glucose uptake in differentiated L6-myotubes (Biological Example 2). The format is cell-based. Particulars: read-out: Biological example 2 (GU). In short, it runs like this: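 Differentiated L6 myotubes were serum-starved overnight in 0.5% fatty-acid-free BSA and then stimulated with compound or isoprenaline at 1×10^−5 M final. After 1 h 40 min cells were washed and re-dosed in glucose-free medium. Twenty minutes later, uptake of 50 nM ^3H-2-deoxyglucose over 10 min was measured by scintillation counting of NaOH lysates.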

In experiment [2] the test system is L6-myotubes. Put plainly: Measurement of intracellular cAMP levels in differentiated L6-myotubes (Biological Example 3). The settings on record: 0.25 h. The format is cell-based. In short, it runs like this:
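Serum-starved differentiated L6 myotubes stimulated 15 min with test compound at 1×10^−5 M final (isoprenaline as reference) in HBSS with 1% BSA, 5 mM HEPES, 1 mM IBMX, pH 7.4. Cells EtOH-extracted, lysed, and intracellular cAMP measured by AlphaScreen.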

[3] abbreviates: glucose uptake, compound at 10 μM relative to isoproterenol at 10 μM.
The mark [4] stands for this setting: intracellular cAMP, compound at 10 μM relative to isoproterenol at 10 μM.
Setting [5] is: glucose uptake in differentiated L6-myotubes, compound at 10 μM, activity relative to isoproterenol at 10 μM.
Setting [6] is: intracellular cAMP in differentiated L6-myotubes, compound at 10 μM, activity relative to isoproterenol at 10 μM.

The structures appear in SMILES notation.

As to `CCCCNC[C@H](O)c1cccc(F)c1` [Compound 47, (R)-2-(butylamino)-1-(m-fluorophenyl)-1-ethanol], the Emax at 10 µM was 50 to 75% with L6-myotubes [1] (setting [3]) and less than 25% in the experiment with L6-myotubes [2] (setting [4]).
With `O[C@H](c1cccc(F)c1)C12CCC(COCc3ccc(Cl)cc3)(CC1)N2` [Compound 396, (R)-(4-{[(p-chlorophenyl)methoxy]methyl}-7-azabicyclo[[2.2.1]]hept-1-yl)(m-fluorophenyl)methanol], the Emax at 10 µM in the experiment with L6-myotubes [1] (setting [5]) is greater than 75%; with L6-myotubes [2] (setting [6]), less than 25%.
`O[C@@H](c1cccc(F)c1)[C@H]1CC[C@@H](Cc2ccc(Cl)cc2)N1` [Compound 391, (S)-{(2R,5S)-5-[(p-chlorophenyl)methyl]-2-pyrrolidinyl}(m-fluorophenyl)methanol]: the values for the Emax at 10 µM in the experiment on L6-myotubes [1] (setting [5]) and in the experiment on L6-myotubes [2] (setting [6]) were 50 to 75% and less than 25%, respectively.
The matching figures for `CO[C@H]1CC[C@@H](CCC(C)(C)NC[C@H](O)c2cccc(F)c2)CC1` [Compound 264, (R)-2-{1,1-dimethyl-3-[(1s,4R)-4-methoxycyclohexyl]propylamino}-1-(m-fluorophenyl)-1-ethanol]: greater than 75% and 25 to 50%.
`CCC[C@@H]1CCC[C@H]([C@@H](O)c2cccc(F)c2)N1` [Compound 60]: the Emax at 10 µM in the experiment with L6-myotubes [1] (setting [3]) was 25 to 50%; in the experiment on L6-myotubes [2] (setting [4]) it was less than 25%.
In the case of `COCC12CCC([C@H](O)c3cccc(F)c3)(CC1)N2` [Compound 330, (R)-(m-fluorophenyl){4-(methoxymethyl)-7-azabicyclo[[2.2.1]]hept-1-yl}methanol], the results for the Emax at 10 µM in the experiment with L6-myotubes [1] (setting [5]) and in the experiment with L6-myotubes [2] (setting [6]) were greater than 75% and less than 25%, respectively.
As for `CS(=O)(=O)Nc1cccc(CC23CCC([C@@H](O)c4cccc(F)c4)(CC2)N3)c1` [Compound 514, (S)-(m-fluorophenyl)(4-{[m-(mesylamino)phenyl]methyl}-7-azabicyclo[[2.2.1]]hept-1-yl)methanol], the Emax at 10 µM in the experiment on L6-myotubes [1] (setting [5]) is 50 to 75%; in the experiment on L6-myotubes [2] (setting [6]) it was less than 25%.
Consider `COc1ccc(C[C@H]2CC[C@H]([C@H](O)c3cncc(F)c3)N2)cc1` [Compound 379, (R)-{(2R,5R)-5-[(p-methoxyphenyl)methyl]-2-pyrrolidinyl}(5-fluoro-3-pyridyl)methanol], for which the figures for the Emax at 10 µM in the experiment with L6-myotubes [1] (setting [5]) and with L6-myotubes [2] (setting [6]) were greater than 75% and less than 25%, respectively.
The matching figures for `CC1(C)C[C@H]([C@@H](O)c2cccc(Cl)c2)N1` [Compound 233, (S)-[(R)-4,4-dimethyl-2-azetidinyl](m-chlorophenyl)methanol]: less than 25% and less than 25%.
For the compound `CCC[C@H]1CC[C@H]([C@H](O)c2cccc(F)c2)N1` [Compound 124, (R)-[(2R,5S)-5-propyl-2-pyrrolidinyl](m-fluorophenyl)methanol], the Emax at 10 µM in the experiment on L6-myotubes [1] (setting [3]) is 50 to 75%; in the experiment on L6-myotubes [2] (setting [4]) it was less than 25%.
Consider `CCC[C@@H]1CCC[C@H]([C@@H](O)c2ccccc2F)N1` [Compound 107, (S)-[(2R,6R)-6-propyl-2-piperidyl](o-fluorophenyl)methanol], for which the values for the Emax at 10 µM with L6-myotubes [1] (setting [3]) and in the experiment on L6-myotubes [2] (setting [4]) were 25 to 50% and less than 25%, respectively.
Regarding `CC(=O)N(Cc1ccccc1)[C@H]1CC[C@@H](C[C@@H]2CC[C@H]([C@H](O)c3cccc(F)c3)N2)CC1` [Compound 480, N-[(1R,4s)-4-({(2S,5R)-5-[(R)-(m-fluorophenyl) hydroxymethyl]-2-pyrrolidinyl}methyl)cyclohexyl]-N-benzylacetamide], the Emax at 10 µM in the experiment on L6-myotubes [1] (setting [5]) and in the experiment on L6-myotubes [2] (setting [6]) was less than 25% each time.
In the case of `CC1(C)CC[C@H]([C@@H](O)c2ccccc2F)N1` [Compound 174, (S)-[(R)-5,5-dimethyl-2-pyrrolidinyl](o-fluorophenyl)methanol], the Emax at 10 µM in the experiment with L6-myotubes [1] (setting [3]) and in the experiment with L6-myotubes [2] (setting [4]) was less than 25% throughout.
With `CS(=O)(=O)N(Cc1ccccc1)CC12CCC([C@@H](O)c3cccc(F)c3)(CC1)N2` [Compound 538, (S)-(4-{[(benzyl)-N-mesylamino]methyl}-7-azabicyclo[[2.2.1]]hept-1-yl)(m-fluorophenyl)methanol], the values for the Emax at 10 µM in the experiment on L6-myotubes [1] (setting [5]) and with L6-myotubes [2] (setting [6]) were 50 to 75% and less than 25%, respectively.
On to `CCCC(C)NCC(O)c1cccc(O)c1` (stereo not shown) [Compound 14, 1-(m-hydroxyphenyl)-2-(1-methylbutylamino)-1-ethanol], for which the Emax at 10 µM was greater than 75% in the experiment on L6-myotubes [1] (setting [3]) and less than 25% in the experiment with L6-myotubes [2] (setting [4]).
With `CCCC(C)NCC(O)c1ccc(O)cc1` (stereo not shown) [Compound 8, 1-(p-hydroxyphenyl)-2-(1-methylbutylamino)-1-ethanol], the Emax at 10 µM fell in the range of 50 to 75% in the experiment with L6-myotubes [1] (setting [3]) and 25 to 50% in the experiment with L6-myotubes [2] (setting [4]).
For the compound `CC(=O)N(Cc1ccccc1)[C@H]1CC[C@H](C[C@@H]2CC[C@H]([C@H](O)c3cccc(F)c3)N2)CC1` [Compound 482, N-[(1S,4r)-4-({(2S,5R)-5-[(R)-(m-fluorophenyl) hydroxymethyl]-2-pyrrolidinyl}methyl)cyclohexyl]-N-benzylacetamide], the Emax at 10 µM with L6-myotubes [1] (setting [5]) and in the experiment with L6-myotubes [2] (setting [6]) was less than 25% in each case.
With `CC(C)(C)NC[C@H](O)c1cccc(C(F)(F)F)n1` [Compound 397, (S)-2-(tert-butylamino)-1-[6-(trifluoromethyl)-2-pyridyl]-1-ethanol], the Emax at 10 µM is greater than 75% with L6-myotubes [1] (setting [5]) and less than 25% in the experiment with L6-myotubes [2] (setting [6]).
Turning to `CS(=O)(=O)N[C@H]1CC[C@H](C[C@@H]2CC[C@H]([C@H](O)c3cccc(F)c3)N2)CC1` [Compound 504], the Emax at 10 µM in the experiment with L6-myotubes [1] (setting [5]) was 50 to 75%; in the experiment on L6-myotubes [2] (setting [6]), less than 25%.
Take `O[C@@H](CNCC[C@H]1CC[C@@H](O)CC1)c1cncc(F)c1` [Compound 293, (R)-1-(5-fluoro-3-pyridyl)-2-{2-[(1s,4S)-4-hydroxycyclohexyl]ethylamino}-1-ethanol]: the Emax at 10 µM with L6-myotubes [1] (setting [5]) was 25 to 50%; in the experiment on L6-myotubes [2] (setting [6]) it was less than 25%.
Consider `CCCCNCC(O)c1cccc(O)c1` (stereo not shown) [Compound 15, 2-(butylamino)-1-(m-hydroxyphenyl)-1-ethanol], for which the Emax at 10 µM in the experiment with L6-myotubes [1] (setting [3]) was 50 to 75%; in the experiment on L6-myotubes [2] (setting [4]) it was less than 25%.
`CCC[C@H]1CCC[C@H]([C@H](O)c2ccc(F)cc2)N1` [Compound 92]: the figures for the Emax at 10 µM in the experiment with L6-myotubes [1] (setting [3]) and in the experiment with L6-myotubes [2] (setting [4]) were 25 to 50% and less than 25%, respectively.
Regarding `O=C(N[C@H]1CC[C@H](CNC[C@H](O)c2cncc(F)c2)CC1)c1ccccc1` [Compound 317], the Emax at 10 µM with L6-myotubes [1] (setting [5]) is 50 to 75%; in the experiment with L6-myotubes [2] (setting [6]), less than 25%.
`CC(C)(C[C@H]1CC[C@H](NS(C)(=O)=O)CC1)NC[C@H](O)c1cncc(F)c1` [Compound 360, (R)-2-{1,1-dimethyl-2-[(1r,4R)-4-(mesylamino)cyclohexyl]ethylamino}-1-(5-fluoro-3-pyridyl)-1-ethanol]: the Emax at 10 µM was greater than 75% with L6-myotubes [1] (setting [5]) and less than 25% in the experiment with L6-myotubes [2] (setting [6]).
Regarding `CNS(=O)(=O)[C@H]1CC[C@@H](CC(C)(C)NC[C@H](O)c2cccc(F)c2)CC1` [Compound 477, (R)-2-{1,1-dimethyl-2-[(1s,4S)-4-(methylaminosulfonyl)cyclohexyl]ethylamino}-1-(m-fluorophenyl)-1-ethanol], the Emax at 10 µM with L6-myotubes [1] (setting [5]) is 50 to 75%; with L6-myotubes [2] (setting [6]) it was less than 25%.
The matching figures for `CC(=O)N[C@H]1CC[C@@H](CNC[C@H](O)c2cncc(F)c2)CC1` [Compound 310]: 25 to 50% and less than 25%.
As to `CCC[C@H]1CCC[C@@H]([C@@H](O)c2cccc(F)c2)N1` [Compound 119], the Emax at 10 µM in the experiment with L6-myotubes [1] (setting [3]) was 25 to 50%; with L6-myotubes [2] (setting [4]), less than 25%.
With `CCCCNC[C@H](O)c1ccc(F)cc1O` [Compound 81, (R)-2-(butylamino)-1-(4-fluoro-2-hydroxyphenyl)-1-ethanol], the Emax at 10 µM with L6-myotubes [1] (setting [3]) was 50 to 75%; with L6-myotubes [2] (setting [4]), less than 25%.
Regarding `CC(C)(C)CNC[C@H](O)c1cccc(F)c1` [Compound 117, (R)-1-(m-fluorophenyl)-2-(neopentylamino)-1-ethanol], the Emax at 10 µM in the experiment on L6-myotubes [1] (setting [3]) is 25 to 50%; in the experiment with L6-myotubes [2] (setting [4]) it was less than 25%.
Take `CC(=O)N[C@H]1CC[C@H](CC(C)(C)NC[C@@H](O)c2cccc(C#N)n2)CC1` [Compound 427]: the Emax at 10 µM with L6-myotubes [1] (setting [5]) and with L6-myotubes [2] (setting [6]) was less than 25% in each case.
Take `CC(C)(C)NC[C@H](O)c1cncc(O)c1` [Compound 100, 5-[(R)-2-(tert-butylamino)-1-hydroxyethyl]-3-pyridinol]: the Emax at 10 µM in the experiment on L6-myotubes [1] (setting [3]) was greater than 75%; in the experiment on L6-myotubes [2] (setting [4]), less than 25%.
On to `CC(C)(C[C@H]1CC[C@H](NC(=O)OC(C)(C)C)CC1)NC[C@H](O)c1cccc(F)c1` [Compound 420, (1R,4r)-4-{2-[(R)-2-(m-fluorophenyl)-2-hydroxyethylamino]-2-methylpropyl}cyclohexy-2-methyl-2-propanecarbamate], for which the Emax at 10 µM in the experiment on L6-myotubes [1] (setting [5]) lay within 50 to 75%; with L6-myotubes [2] (setting [6]), 25 to 50%.
Regarding `Oc1ccc(C(O)CNCCCC2CCCCC2)cc1` (stereo not shown) [Compound 21, 2-(3-cyclohexylpropylamino)-1-(p-hydroxyphenyl)-1-ethanol], the Emax at 10 µM in the experiment on L6-myotubes [1] (setting [3]) was greater than 75%; with L6-myotubes [2] (setting [4]), less than 25%.
For the compound `O[C@@H](c1cncc(F)c1)C12CCC(CCCc3ccccc3)(CC1)N2` [Compound 531, (S)-(5-fluoro-3-pyridyl){4-(3-phenylpropyl)-7-azabicyclo[[2.2.1]]hept-1-yl}methanol], the Emax at 10 µM with L6-myotubes [1] (setting [5]) is 50 to 75%; with L6-myotubes [2] (setting [6]) it was less than 25%.
`CCOC(=O)CO[C@H]1CC[C@H](C(C)(C)NC[C@H](O)c2cncc(F)c2)CC1` [Compound 409, ethyl[[(1R,4r)-4-{1-[(R)-2-(5-fluoro-3-pyridyl)-2-hydroxyethylamino]-1-methylethyl}cyclohexyloxy]]acetate]: the Emax at 10 µM in the experiment with L6-myotubes [1] (setting [5]) is greater than 75%; with L6-myotubes [2] (setting [6]), less than 25%.
